In patent US20260191769A1, “DRUG ELUTING IMPLANTS AND USES THEREOF” (MUSC FOUNDATION FOR RESEARCH DEVELOPMENT, priority 2022, published 2026) one finds zone of inhibition data, which are given here for one compound.

This test deals with Methicillin-Resistant Staphylococcus aureus (MRSA). Put plainly: microbe, parasite or virus in culture.

Like-named read-outs stand apart in the source and are kept apart here.

Method: At the prescribed time points, gels were removed and placed in active bacteria cultures for 24 hours. After 24 hours, the gels were removed and the bacteria zone of exclusion will be measured.
Briefly, Methicillin-Resistant Staphylococcus aureus (MRSA) was cultured in brain-heart infusion broth and diluted to match a 0.5 McFarland turbidity standard. The resulting culture was tested with gram stain to ensure the MRSA was present. After determining that the MRSA was indeed gram-positive and present, the MRSA was carefully spread onto 150 mm agar plates to inoculate the plates. 5 mcg and 30 mcg vancomycin loaded disks were placed on each agar plate as antibiotic controls. Six plates were run in this experiment, with three plates containing aliquots (from the eluates collected from the study of Example 1 Aim 1) with peroxide (FIG. 7A), while the other three plates contained aliquots run with collagenase & phosphate buffered saline (FIG. 7B).
Aliquots from days 3, 7, 14, 21, and 28 were run. 10 μL of each aliquot was pipetted onto filter paper and placed onto the agar plates. The agar plates were incubated for 24 hours at 37 degrees Celsius, and the zones of inhibition were measured the following morning.

The zone of inhibition is the size of the clear area around the sample on an inoculated plate. As for `CN[C@H](CC(C)C)C(=O)N[C@H]1C(=O)N[C@@H](CC(N)=O)C(=O)N[C@H]2C(=O)N[C@H]3C(=O)N[C@H](C(=O)N[C@H](C(=O)O)c4cc(O)cc(O)c4-c4cc3ccc4O)[C@H](O)c3ccc(c(Cl)c3)Oc3cc2cc(c3O[C@@H]2O[C@H](CO)[C@@H](O)[C@H](O)[C@H]2O[C@H]2C[C@](C)(N)[C@H](O)[C@H](C)O2)Oc2ccc(cc2Cl)[C@H]1O` [Vanc., vancomycin], the zone of inhibition at 5 µg/disc reads like this: (read-out: 5 mcg Vanc. zone of inhibition, average, 5 mcg vancomycin control disk, average of plates 1-3 (collagenase & phosphate buffered saline)) 1.33 mm; (read-out: 5 mcg Vanc. zone of inhibition, average, 5 mcg vancomycin control disk, average of plates 4-6 (peroxide)) 1.33 mm. Further, the zone of inhibition at 30 µg/disc by setting is: (read-out: 30 mcg Vanc. zone of inhibition, average, 30 mcg vancomycin control disk, average of plates 1-3 (collagenase & phosphate buffered saline)) 4.67 mm; (read-out: 30 mcg Vanc. zone of inhibition, average, 30 mcg vancomycin control disk, average of plates 4-6 (peroxide)) 4.33 mm.
